Earlier results on one compound are cited in patent US20030216337A1, “Composition and imaging methods for pharmacokinetic and pharmacodynamic evaluation of therapeutic delivery system” (priority 2002, published 2003).

The structures appear in SMILES notation.

In the case of `O=c1[nH]c(=O)n([C@H]2C[C@H](O)[C@@H](CO)O2)cc1I` [IUdR, 5-Iodo-2′-deoxyuridine], the half-life result (in humans, unincorporated IUdR / resulting compound) is listed as “less than minutes”. In addition, the “catabolism of unincorporated IUdR” value (unincorporated into DNA) is listed as “rapidly catabolized to iodouracil and/or dehalogenated”.
